Drawing on ChEMBL document CHEMBL3621118, “Virtual screening for novel Atg5Atg16 complex inhibitors for autophagy modulation” (2015), this text covers inhibition and growth for twelve compounds.

Activity calls are given as the source filed them. The calls are words filed in the database; no cut-off is given here.

Assay [1] has as its system MCF7. Description: Inhibition of chloroquine-induced autophagy in human MCF7 cells assessed as suppression of autophagosome formation at 25 uM after 5 hrs by MDC staining-based fluorescence microscopic analysis. The class given is functional, cell-based.
The subject of assay [2] is A2780. The experiment in a line: Inhibition of PBS-induced autophagy in human A2780 cells assessed as decrease in depletion of p62 level preincubated for 1 hr followed by PBS induction measured after 3 hrs by Western blot analysis. The class given is functional, cell-based.
For assay [3], the system named is A2780. Description: Inhibition of PBS-induced autophagy in human A2780 cells assessed as decrease in LC3-2 level preincubated for 1 hr followed by PBS induction measured after 3 hrs by Western blot analysis. In kind it is functional, cell-based.
The subject of assay [4] is A2780. Description: Inhibition of PBS-induced autophagy in human A2780 cells assessed as decrease in LC3-2 level at 50 to 100 uM preincubated for 1 hr followed by PBS induction measured after 3 hrs by Western blot analysis. In kind it is functional, cell-based.
For assay [5], the system named is A2780. The experiment in a line: Inhibition of PBS-induced autophagy in human A2780 cells assessed as decrease in depletion of p62 level at 50 to 100 uM preincubated for 1 hr followed by PBS induction measured after 3 hrs by Western blot analysis. The class given is functional, cell-based.
A short description of assay [6]: Cytotoxicity against human NCI60 cells assessed as cell growth at 10 uM after 24 hrs by SRB assay relative to control. In kind it is functional. The conditions noted are these: NCI60, 24 h, read-out: Activity.

In the case of `O=C(NCCCCc1ccccc1)c1ccc(Cl)cc1Cl`, the inhibition result in assay [1] is “Active”. Also, the inhibition result in assay [2] and in assay [3] was “Dose-dependent effect” in each case.
For `O=C(NC1CCN(Cc2ccccc2)CC1)c1ccc(Cl)cc1Cl`, the inhibition result in assay [4] and in assay [5] was “inactive” throughout.
Take `Cc1cccc(CS(=O)(=O)NCc2ccc(N3CCCC3)cc2)c1`: the inhibition result in assay [1], in assay [4] and in assay [5] was “Active” throughout. Also, the growth at 10 µM in assay [6] was 90.1%.
Turning to `O=C(NCCCc1ccccc1)c1ccccc1`, the inhibition entry in assay [4] and in assay [5] was “inactive” each time.
In the case of `Cc1ccc(OCC(=O)Nc2ccc(N3CCN(C(=O)c4ccco4)CC3)cc2)cc1`, the inhibition result in assay [4] and in assay [5] was “Active” in each case.
As to `O=C(NCCCCc1ccccc1)c1cccc(Br)c1`, the inhibition result in assay [4] and in assay [5] was “inactive” each time.
Regarding `O=C(NCCCOc1ccccc1)c1cccc2ccccc12`, the inhibition result in assay [1], in assay [4] and in assay [5] was “Active” in each case.
For `O=C(NCCCCc1ccccc1)c1ccc(Br)cc1`, the inhibition result in assay [4] and in assay [5] was “inactive” throughout.
With `O=C(NCCCCc1ccccc1)c1ccccc1F`, the inhibition result in assay [4] and in assay [5] was “Active” each time.
As for `O=C(NCCCCc1ccccc1)c1ccccc1Br`, the inhibition result in assay [4] and in assay [5] was “inactive” in each case.
On to `COc1ccc(NC(=O)C(=O)NCCN2CCN(C(=O)c3ccc(Cl)cc3Cl)CC2)cc1`, for which the inhibition entry in assay [4] and in assay [5] was “inactive” in each case.
Turning to `O=C(CNC(=O)c1ccc(Cl)cc1Cl)OCC(=O)c1ccc(Br)cc1`, the inhibition result in assay [4] and in assay [5] was “inactive” in each case.
